Literature values as cited in US20220000907A1, “MOUTHWASH/GARGLE, NASAL/ORAL/NASAL SPRAY COVID AND BACTERIOCIDE ARRANGEMENT” (priority 2020, published 2022).

Columns and labels:
[1] = test system: all seven classes of viral organisms
microbes = conditions: 1.0% PVPI solution gives 0.1% available iodine

polyvinylpyrrolidone iodine [PVPI]
effectiveness against all classes of viruses (I-VII) ([1]; PVPI in solution): effective
inactivation of all classes of viruses ([1]; effective concentration of 0.1% available iodine): inactivated
most effective antimicrobial concentration of PVPI (peak of bell curve of microbial killing) (microbes): 1%
